{
  "source": "patent US12233105B1",
  "about": "“Methods for storing and warming purified corticotropin compositions” (ANI Pharmaceuticals, Inc., priority 2022, dated 2025)",
  "test_system": "THP-1 Blue, Raw Blue, HEK-blue hTLR3, HEK-Blue hTLR4, HEK-Blue hNOD2",
  "test": "Innate immune response activation assays in TLR/NOD2 reporter cell lines",
  "type": "cell-based",
  "details": "5 cell lines covering TLR and NOD2 expression; 3 PPQ lots; highest drug substance concentration tested 10 μg/mL",
  "procedure": "Method development, qualification, and testing for activation of innate immune response was performed. The innate immune assays performed compared 3 PPQ lots. The work was conducted using 5 cell lines to cover TLR and NOD2 expression (THP-1 Blue, Raw Blue, HEK-blue hTLR3, HEK-Blue hTLR4, HEK-Blue hNOD2). […] The highest drug substance concentration tested was 10 μg/mL. A dose of the sterile preparation of purified corticotropin at 80 U is, equivalent to approximately 1 mg of drug substance per total body weight of subject.",
  "data": [
    {"smiles": "CCCc1nc2c(N)nc3ccccc3c2s1", "note": "[CL075]", "values": [
      {"measurement": "dose response for activation of innate immune response", "result": "robust dose responses"}
    ]},
    {"smiles": "CC(=O)N[C@@H]1[C@@H](O[C@H](C)C(=O)N[C@@H](C)C(=O)N[C@H](CCC(=O)O)C(N)=O)[C@H](O)[C@@H](CO)O[C@H]1O", "note": "[MDP]", "values": [
      {"measurement": "dose response for activation of innate immune response", "result": "robust dose responses"}
    ]}
  ]
}
